# Assay results as given in ChEMBL document CHEMBL5442741, “ASAP - In vitro kinase profile” (2024).
# “And” between values parts separate entries of the source, which are not always exact repeats. Equal entries are not always repeated.
# How the values were obtained:
# [1] = molecular target: T1, Ephrin type-B receptor 4 (Homo sapiens) (UniProt P54760); assay: Enzymatic radiometric [Km ATP] KinaseProfiler LeadHunter assay, kinase: EphB4, catalogue number: 14-554KP The assay has been performed by Eurofins Discovery.; settings: ATP concentration 10.0 uM, Test compound concentration 10.0 uM
# T1 sequence (whole entry): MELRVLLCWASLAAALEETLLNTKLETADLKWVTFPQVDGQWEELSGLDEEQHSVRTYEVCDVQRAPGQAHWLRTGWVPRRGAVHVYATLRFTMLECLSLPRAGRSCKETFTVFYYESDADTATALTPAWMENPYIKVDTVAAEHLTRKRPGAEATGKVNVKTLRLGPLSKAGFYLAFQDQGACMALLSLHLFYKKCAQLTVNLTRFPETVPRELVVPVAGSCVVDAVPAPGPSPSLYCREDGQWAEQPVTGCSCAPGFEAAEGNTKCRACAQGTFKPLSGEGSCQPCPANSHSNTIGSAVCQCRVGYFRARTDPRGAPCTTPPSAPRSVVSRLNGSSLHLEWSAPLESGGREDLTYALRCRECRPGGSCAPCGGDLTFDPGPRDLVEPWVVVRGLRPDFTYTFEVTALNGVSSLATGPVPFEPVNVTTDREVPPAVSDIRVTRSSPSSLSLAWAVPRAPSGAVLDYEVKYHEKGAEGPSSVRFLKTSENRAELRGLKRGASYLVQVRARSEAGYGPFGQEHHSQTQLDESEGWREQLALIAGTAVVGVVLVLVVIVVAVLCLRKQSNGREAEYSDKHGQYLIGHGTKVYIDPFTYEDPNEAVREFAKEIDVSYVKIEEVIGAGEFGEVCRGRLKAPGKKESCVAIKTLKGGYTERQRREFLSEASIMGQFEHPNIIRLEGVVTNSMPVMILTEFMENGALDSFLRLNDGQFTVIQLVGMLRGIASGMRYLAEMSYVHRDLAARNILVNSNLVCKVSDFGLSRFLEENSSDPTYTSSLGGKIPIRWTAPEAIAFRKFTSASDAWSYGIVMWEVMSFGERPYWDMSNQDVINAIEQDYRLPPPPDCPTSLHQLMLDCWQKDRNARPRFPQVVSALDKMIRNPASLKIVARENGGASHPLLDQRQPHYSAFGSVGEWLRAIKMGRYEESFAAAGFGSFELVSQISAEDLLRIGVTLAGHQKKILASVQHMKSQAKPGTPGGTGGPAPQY
# [2] = molecular target: T2, Inhibitor of nuclear factor kappa-B kinase subunit alpha (Homo sapiens) (UniProt O15111); assay: Enzymatic radiometric [Km ATP] KinaseProfiler LeadHunter assay, kinase: IKK-alpha, catalogue number: 14-461KP The assay has been performed by Eurofins Discovery.; settings: ATP concentration 10.0 uM, Test compound concentration 10.0 uM
# T2 sequence (whole entry): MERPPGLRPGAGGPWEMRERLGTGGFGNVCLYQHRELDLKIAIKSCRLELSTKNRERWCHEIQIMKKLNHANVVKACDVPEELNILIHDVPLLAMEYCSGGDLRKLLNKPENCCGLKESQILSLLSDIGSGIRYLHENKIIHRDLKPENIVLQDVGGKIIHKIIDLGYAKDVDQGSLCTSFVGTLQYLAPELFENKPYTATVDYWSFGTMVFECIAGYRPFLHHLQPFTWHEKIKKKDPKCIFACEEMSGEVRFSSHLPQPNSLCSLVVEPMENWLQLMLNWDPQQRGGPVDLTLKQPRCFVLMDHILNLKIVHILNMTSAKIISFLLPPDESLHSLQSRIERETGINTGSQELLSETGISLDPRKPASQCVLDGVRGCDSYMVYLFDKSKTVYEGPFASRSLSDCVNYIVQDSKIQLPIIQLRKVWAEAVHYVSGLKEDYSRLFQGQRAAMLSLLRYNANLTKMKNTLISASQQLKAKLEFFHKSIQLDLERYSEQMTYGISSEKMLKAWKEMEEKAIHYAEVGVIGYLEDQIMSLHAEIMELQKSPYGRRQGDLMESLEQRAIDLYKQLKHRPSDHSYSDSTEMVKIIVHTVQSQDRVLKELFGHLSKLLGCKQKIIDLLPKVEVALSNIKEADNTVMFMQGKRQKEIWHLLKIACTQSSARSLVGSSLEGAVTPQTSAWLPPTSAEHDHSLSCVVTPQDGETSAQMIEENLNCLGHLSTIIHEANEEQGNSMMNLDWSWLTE
# [3] = molecular target: Dual specificity mitogen-activated protein kinase kinase 1 (Homo sapiens) (UniProt Q02750); assay: Enzymatic radiometric [Km ATP] KinaseProfiler LeadHunter assay, kinase: MEK1, catalogue number: 14-429KP The assay has been performed by Eurofins Discovery.; settings: ATP concentration 10.0 uM, Test compound concentration 10.0 uM
# [4] = molecular target: T3, Serine/threonine-protein kinase Nek2 (Homo sapiens) (UniProt P51955); assay: Enzymatic radiometric [Km ATP] KinaseProfiler LeadHunter assay, kinase: NEK2, catalogue number: 14-545KP The assay has been performed by Eurofins Discovery.; settings: ATP concentration 120.0 uM, Test compound concentration 10.0 uM
# T3 sequence (whole entry): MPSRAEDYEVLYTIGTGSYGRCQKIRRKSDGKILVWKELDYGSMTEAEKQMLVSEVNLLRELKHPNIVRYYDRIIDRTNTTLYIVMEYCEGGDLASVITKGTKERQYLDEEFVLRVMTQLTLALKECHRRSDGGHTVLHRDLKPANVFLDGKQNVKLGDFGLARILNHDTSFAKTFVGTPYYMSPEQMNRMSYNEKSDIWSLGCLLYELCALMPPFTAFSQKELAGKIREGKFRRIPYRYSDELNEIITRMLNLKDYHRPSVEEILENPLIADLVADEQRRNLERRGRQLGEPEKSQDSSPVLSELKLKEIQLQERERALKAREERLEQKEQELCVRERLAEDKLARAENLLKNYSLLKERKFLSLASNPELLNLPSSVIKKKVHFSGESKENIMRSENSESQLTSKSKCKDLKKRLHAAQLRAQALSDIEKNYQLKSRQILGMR
# [5] = molecular target: Serine/threonine-protein kinase pim-1 (Homo sapiens) (UniProt P11309); assay: Enzymatic radiometric [Km ATP] KinaseProfiler LeadHunter assay, kinase: Pim-1, catalogue number: 14-573KP The assay has been performed by Eurofins Discovery.; settings: ATP concentration 90.0 uM, Test compound concentration 10.0 uM
# Sequence of Serine/threonine-protein kinase pim-1 (Homo sapiens) (P11309 whole entry, looked up): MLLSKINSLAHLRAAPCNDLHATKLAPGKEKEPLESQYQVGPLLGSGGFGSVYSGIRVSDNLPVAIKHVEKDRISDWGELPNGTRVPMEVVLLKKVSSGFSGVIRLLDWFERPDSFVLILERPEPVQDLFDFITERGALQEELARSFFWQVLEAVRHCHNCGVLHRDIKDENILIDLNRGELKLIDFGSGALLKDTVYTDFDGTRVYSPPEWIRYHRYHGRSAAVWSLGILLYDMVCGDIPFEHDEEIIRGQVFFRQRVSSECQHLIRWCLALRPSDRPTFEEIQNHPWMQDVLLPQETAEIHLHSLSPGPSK
# Sequence of Dual specificity mitogen-activated protein kinase kinase 1 (Homo sapiens) (Q02750 whole entry): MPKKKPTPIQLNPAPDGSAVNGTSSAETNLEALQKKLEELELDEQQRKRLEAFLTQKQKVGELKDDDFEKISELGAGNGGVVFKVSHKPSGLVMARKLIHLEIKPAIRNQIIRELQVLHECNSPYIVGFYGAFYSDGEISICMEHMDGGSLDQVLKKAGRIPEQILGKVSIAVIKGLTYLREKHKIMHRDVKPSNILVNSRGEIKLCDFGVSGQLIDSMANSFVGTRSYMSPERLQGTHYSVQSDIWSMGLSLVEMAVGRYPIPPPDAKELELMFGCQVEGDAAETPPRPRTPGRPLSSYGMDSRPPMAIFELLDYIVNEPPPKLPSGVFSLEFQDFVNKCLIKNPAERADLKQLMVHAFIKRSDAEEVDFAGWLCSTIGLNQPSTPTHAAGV
SMILES,Activity [1],Activity [2],Activity [3],Activity [4],Activity [5]
CC(C)[C@@H](Nc1ncnc2[nH]ccc12)c1ccc2c(c1)S(=O)(=O)CCC2,91%,91%,97%,118%,80%
C[C@H](C(=O)O)[C@@H](NC(=O)c1ncnc2[nH]ccc12)c1ccc(Br)cc1,105%,99%,89%,101%,95%
CC(C)[C@H](Nc1ncnc2[nH]c(-c3cnn(C)c3C#N)cc12)c1ccc2c(n1)OCCO2,89%,120%,97%,105%,98%
CC(C)[C@@H](Nc1ncnc2[nH]c(-c3cnn(C)c3C#N)cc12)c1ccc2c(n1)OCCO2,75% and 91%,111% and 104%,99% and 103%,94% and 76%,79% and 99%
COc1ccc([C@H](Cc2nnn[nH]2)NC(=O)c2ncnc3[nH]ccc23)cc1,106%,98%,100%,106%,99%
Cc1nn(C)cc1-c1cc2c(N[C@H](c3ccc4c(c3)S(=O)(=O)CCC4)C(C)C)ncnc2[nH]1,98%,94%,99%,98%,95%
CNCc1cc(-c2cc3c(N[C@@H](c4ccc5c(c4)S(=O)(=O)CCC5)C(C)C)ncnc3[nH]2)co1,92%,79%,97%,105%,93%
Cn1ncc(-c2cc3c(N[C@@H](c4ccc5c(n4)OCCO5)C(C)(C)C)ncnc3[nH]2)c1C#N,115%,125%,98%,104%,107%
COc1ccc([C@@H](Cc2nnn[nH]2)NC(=O)c2ncnc3[nH]ccc23)cc1,88%,99%,92%,100%,91%
CC(C)[C@@H](Nc1ncnc2[nH]c(C(=O)N[C@@H]3CCN(C)C3)cc12)c1ccc2c(c1)S(=O)(=O)CCC2,86%,82%,107%,118%,97%
CC(C)[C@H](Nc1ncnc2[nH]ccc12)c1ccc2c(c1)S(=O)(=O)CCC2,86%,92%,94%,109%,91%
CNC(=O)Cn1cc(-c2cc3c(N[C@@H](c4ccc5c(c4)S(=O)(=O)CCC5)C(C)C)ncnc3[nH]2)cn1,97%,84%,97%,114%,97%
